Measurements: PubChem BioAssay (NCI)
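Protocol summary: plate cells (96-well), add compound at 5 concentrations, incubate 48 h, interpolate endpoints linearly. GI50 is the concentration that inhibits growth by half. The concentration for full growth arrest is given as TGI.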

Tests used:
Test in all cases: growth of human tumour cells (NCI), 48 h
[1] = system: 786-0 renal
[2] = system: A498 renal
[3] = system: A549 NSCLC
[4] = system: ACHN renal
[5] = system: BT-549 breast
[6] = system: CAKI-1 renal
[7] = system: CCRF-CEM leukemia
[8] = system: COLO 205 colon
[9] = system: DU-145 prostate
[10] = system: EKVX NSCLC
[11] = system: HCC-2998 colon
[12] = system: HCT-116 colon
[13] = system: HCT-15 colon
[14] = system: HL-60(TB) leukemia
[15] = system: HOP-62 NSCLC
[16] = system: HOP-92 NSCLC
[17] = system: HS 578T breast
[18] = system: HT29 colon
[19] = system: IGROV1 ovarian
[20] = system: K-562 leukemia
[21] = system: KM12 colon
[22] = system: LOX IMVI melanoma
[23] = system: M14 melanoma
[24] = system: MALME-3M melanoma
[25] = system: MCF7 breast
[26] = system: MDA-MB-231 breast
[27] = system: MDA-MB-435
[28] = system: MOLT-4 leukemia
[29] = system: NCI-H226 lung
[30] = system: NCI-H23 lung
[31] = system: NCI-H460 lung
[32] = system: NCI-H522 lung
[33] = system: NCI/ADR-RES ovarian
[34] = system: OVCAR-3 ovarian
[35] = system: OVCAR-4 ovarian
[36] = system: OVCAR-5 ovarian
[37] = system: OVCAR-8 ovarian
[38] = system: PC-3 prostate
[39] = system: RPMI-8226 leukemia
[40] = system: RXF 393 renal
[41] = system: SF-268 CNS
[42] = system: SF-295 CNS
[43] = system: SF-539 CNS
[44] = system: SK-MEL-2 melanoma
[45] = system: SK-MEL-28 melanoma
[46] = system: SK-MEL-5 melanoma
[47] = system: SK-OV-3 ovarian
[48] = system: SN12C renal
[49] = system: SNB-19 CNS
[50] = system: SNB-75 CNS
[51] = system: SR leukemia
[52] = system: SW-620 colon
[53] = system: T-47D breast
[54] = system: TK-10 renal
[55] = system: U251 CNS
[56] = system: UACC-257 melanoma
[57] = system: UACC-62 melanoma
[58] = system: UO-31 renal

Work on O=[N+]([O-])c1ccc(Sc2ccncn2)c([N+](=O)[O-])c1 yielded a GI50 [1] of 2.24 µM, a TGI [1] of 4.89 µM and a GI50 [2] of 8.71 µM. The TGI [2] was 22.7 µM, the GI50 [3] was 4.3 µM and the TGI [3] was 16.4 µM. For the same molecule, the GI50 [4] was 2.16 µM, the TGI [4] was 5.82 µM and the GI50 [5] was 2.7 µM. The TGI [5] was 7.55 µM, the GI50 [6] was 0.602 µM and the TGI [6] was 1.93 µM. The GI50 [7] was 0.504 µM, the TGI [7] was 6.13 µM and the GI50 [8] was 2.55 µM. For the same molecule, the TGI [8] was 6.5 µM, the GI50 [9] was 2.14 µM and the TGI [9] was 9.17 µM. For the same molecule, the GI50 [10] was 2.39 µM, the TGI [10] was 8.3 µM and the GI50 [11] was 5.17 µM. For the same molecule, the TGI [11] was 16.3 µM, the GI50 [12] was 0.726 µM and the TGI [12] was 2 µM. For the same molecule, the GI50 [13] was 3.07 µM, the TGI [13] was 9.93 µM and the GI50 [14] was 0.174 µM. For the same molecule, the TGI [14] was 0.677 µM, the GI50 [15] was 4.47 µM and the TGI [15] was 15.8 µM. It also gave a GI50 [16] of 1.17 µM, a TGI [16] of 2.66 µM and a GI50 [17] of 3.06 µM. The TGI [17] was 24.2 µM, the GI50 [18] was 1.64 µM and the TGI [18] was 3.81 µM. It also gave a GI50 [19] of 2.23 µM, a TGI [19] of 5.3 µM and a GI50 [20] of 0.277 µM. For the same molecule, the TGI [20] was 1.95 µM, the GI50 [21] was 2.75 µM and the TGI [21] was 9 µM. The GI50 [22] was 1.97 µM, the TGI [22] was 5.21 µM and the GI50 [23] was 1.64 µM. The TGI [23] was 3.3 µM, the GI50 [24] was 1.32 µM and the TGI [24] was 3.23 µM. The GI50 [25] was 2.46 µM, the TGI [25] was 7.74 µM and the GI50 [26] was 7.79 µM. For the same molecule, the TGI [26] was 20.8 µM, the GI50 [27] was 2.5 µM and the TGI [27] was 8.56 µM. For the same molecule, the GI50 [28] was 0.939 µM, the TGI [28] was 4.24 µM and the GI50 [29] was 7.22 µM. For the same molecule, the TGI [29] was 23.1 µM, the GI50 [30] was 2.93 µM and the TGI [30] was 9.73 µM. The GI50 [31] was 3.18 µM, the TGI [31] was 10.8 µM and the GI50 [32] was 0.291 µM. It also gave a TGI [32] of 0.987 µM, a GI50 [33] of 4.46 µM and a TGI [33] of 14.1 µM. It also gave a GI50 [34] of 1.46 µM, a TGI [34] of 2.82 µM and a GI50 [35] of 2.78 µM. For the same molecule, the TGI [35] was 11.3 µM, the GI50 [36] was 5.25 µM and the TGI [36] was 17.7 µM. The GI50 [37] was 3.47 µM, the TGI [37] was 13.3 µM and the GI50 [38] was 3.98 µM. The TGI [38] was 15.7 µM, the GI50 [39] was 2.59 µM and the TGI [39] was 8.16 µM. The GI50 [40] was 3.99 µM, the TGI [40] was 11.7 µM and the GI50 [41] was 2.75 µM. For the same molecule, the TGI [41] was 10.2 µM, the GI50 [42] was 7.29 µM and the TGI [42] was 20.3 µM. It also gave a GI50 [43] of 2.32 µM, a TGI [43] of 6.75 µM and a GI50 [44] of 2.96 µM. For the same molecule, the TGI [44] was 8.96 µM, the GI50 [45] was 4.31 µM and the TGI [45] was 9.44 µM. The GI50 [46] was 3.27 µM, the TGI [46] was 11.7 µM and the GI50 [47] was 8.64 µM. It also gave a TGI [47] of 21.7 µM, a GI50 [48] of 3.89 µM and a TGI [48] of 15.1 µM. It also gave a GI50 [49] of 10.1 µM, a TGI [49] of 23.7 µM and a GI50 [50] of 2.82 µM. It also gave a TGI [50] of 13.1 µM, a GI50 [51] of 0.75 µM and a TGI [51] of 3.53 µM. For the same molecule, the GI50 [52] was 0.413 µM, the TGI [52] was 1.53 µM and the GI50 [53] was 1.94 µM. The TGI [53] was 4.41 µM, the GI50 [54] was 3.03 µM and the TGI [54] was 9.88 µM. It also gave a GI50 [55] of 5.47 µM, a TGI [55] of 17.8 µM and a GI50 [56] of 2.81 µM. The TGI [56] was 9.37 µM, the GI50 [57] was 6.32 µM and the TGI [57] was 19.3 µM. For the same molecule, the GI50 [58] was 1.08 µM and the TGI [58] was 2.84 µM.
